Here are results for one molecule from patent US5763405A, “Stabilized composition for oral administration of peptides” (Ferring B.V., priority 1994, dated 1998).

For the data set the following is noted: pH 6.5.

Method: A tube was introduced intranasally after local anaesthesia with xylocaine, and gastric juice was collected. Thereafter one standardized meal was given 1 h before sampling of duodenal and distal jejunum juice and another the next morning before the collection of distal ileal juice. After centrifugation the gastric and intestinal juices were frozen in aliquots of 1 ml and stored at -20° C. Degradation method. The peptide or peptide analog (10 μl of 10 mM peptide in 0.9% aqueous NaCl) was added to 190 μl of undiluted juice at 370° C. Aliquots of 25 μl were withdrawn at intervals and mixed with 100 μl acetone to stop the reaction. After centrifugation for 10 min at 10,000 g, 10 μl of the supernatiant was analyzed by reversed phase HPLC. Determination of peptide degradation. Analysis was carried out in a Varian 5000 HPLC analyzer equipped with a UV-detector (220 nm). Column Bondapak TM C18 (3.9×300 mm), eluant MeOH/0.025M NH4 Ac (isocratic conditions), flow rate 1 ml/min. Protein and pH determination. Protein: Bio-Rad protein assay. pH: Orion model SA720; pH-paper Merck (Darmstadt), range 4.0-7.0.

As for `NC(=O)CC[C@@H]1NC(=O)[C@H](Cc2ccccc2)NC(=O)[C@H](Cc2ccc(O)cc2)NC(=O)CCSSC[C@@H](C(=O)N2CCC[C@H]2C(=O)N[C@H](CCCN=C(N)N)C(=O)NCC(N)=O)NC(=O)[C@H](CC(N)=O)NC1=O` [DDAVP, Mpa--Tyr--Phe--Gln--Asn--Cys--Pro--D--Arg--Gly--GlyNH2 (SEQ ID NO: 3)], the “DDAVP degraded (to about 50%)” value was “about 50%”.
